Data reported in PubChem BioAssay (NCI).
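Test compounds were applied to cells in 96-well plates for 48 hours at 5 doses. TGI marks complete inhibition of growth.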

Experiments:
Assay in all cases: NCI-60 cell line screen, 48 h
TK-10 renal = tested on: TK-10 renal
SW-620 colon = tested on: SW-620 colon
EKVX NSCLC = tested on: EKVX NSCLC
SN12C renal = tested on: SN12C renal
UACC-62 melanoma = tested on: UACC-62 melanoma
SF-539 CNS = tested on: SF-539 CNS
DU-145 prostate = tested on: DU-145 prostate
NCI/ADR-RES ovarian = tested on: NCI/ADR-RES ovarian
LOX IMVI melanoma = tested on: LOX IMVI melanoma
OVCAR-8 ovarian = tested on: OVCAR-8 ovarian
MDA-MB-435 = tested on: MDA-MB-435
CAKI-1 renal = tested on: CAKI-1 renal
K-562 leukemia = tested on: K-562 leukemia
T-47D breast = tested on: T-47D breast
SNB-75 CNS = tested on: SNB-75 CNS
BT-549 breast = tested on: BT-549 breast
MCF7 breast = tested on: MCF7 breast
M14 melanoma = tested on: M14 melanoma
HCT-116 colon = tested on: HCT-116 colon
SK-MEL-5 melanoma = tested on: SK-MEL-5 melanoma
IGROV1 ovarian = tested on: IGROV1 ovarian
ACHN renal = tested on: ACHN renal
SNB-19 CNS = tested on: SNB-19 CNS
NCI-H522 lung = tested on: NCI-H522 lung
NCI-H23 lung = tested on: NCI-H23 lung
A549 NSCLC = tested on: A549 NSCLC
HS 578T breast = tested on: HS 578T breast
HCT-15 colon = tested on: HCT-15 colon
MDA-N = tested on: MDA-N
MDA-MB-231 breast = tested on: MDA-MB-231 breast
RPMI-8226 leukemia = tested on: RPMI-8226 leukemia
SF-268 CNS = tested on: SF-268 CNS
UACC-257 melanoma = tested on: UACC-257 melanoma
NCI-H460 lung = tested on: NCI-H460 lung
786-0 renal = tested on: 786-0 renal
HT29 colon = tested on: HT29 colon
OVCAR-3 ovarian = tested on: OVCAR-3 ovarian
COLO 205 colon = tested on: COLO 205 colon
SK-MEL-28 melanoma = tested on: SK-MEL-28 melanoma
SK-OV-3 ovarian = tested on: SK-OV-3 ovarian
SK-MEL-2 melanoma = tested on: SK-MEL-2 melanoma
KM12 colon = tested on: KM12 colon
A498 renal = tested on: A498 renal
PC-3 prostate = tested on: PC-3 prostate
HOP-92 NSCLC = tested on: HOP-92 NSCLC
SR leukemia = tested on: SR leukemia
U251 CNS = tested on: U251 CNS
HOP-62 NSCLC = tested on: HOP-62 NSCLC
SF-295 CNS = tested on: SF-295 CNS
UO-31 renal = tested on: UO-31 renal
OVCAR-5 ovarian = tested on: OVCAR-5 ovarian
MOLT-4 leukemia = tested on: MOLT-4 leukemia
OVCAR-4 ovarian = tested on: OVCAR-4 ovarian
NCI-H226 lung = tested on: NCI-H226 lung
RXF 393 renal = tested on: RXF 393 renal
MALME-3M melanoma = tested on: MALME-3M melanoma

Measured: TGI

O=[N+]([O-])c1ccccc1N=Nc1c(O)[nH]c2ccc(S(=O)(=O)O)cc12
> 100 µM: all assays above
